Like-named read-outs stand apart in the source and are kept apart here. Marks after values point to notes of the source that are not given here.
Experiments:
Vero cells = test: Cytotoxicity test (MTT) on Vero cells; type: cell-based, African green monkey; settings: 72 h
Experimental: Cytotoxicity test: the drugs were diluted according to the concentrations shown in table 1-1 for determination of cytotoxicity. […] In addition, 6 wells were set up as normal control group (without drugs) while another 6 pores as blank control group (medium only). Cells were grown in a 37° C. incubator under 5% CO2. […] After 72 h, 20 μL MTT solution (5 mg·mL^−1) was added into each well to continue incubation for 4 h. The culture medium in each well was sucked and discarded, 100 μL DMSO was added to each well. Then the culture was shaken for 5 min, measured OD value at 492 nm to calculate the cell survival ratio. The cell survival ratio was analyzed using a Probit regression model in SPSS 18.0 statistical software, and the maximal nontoxic concentration (TC0) and median toxic concentration (TC50) of drugs against Vero cells were calculated.

influenza virus [1] = test: Impact on virus-induced cytopathic effect in Vero cells (MTT): influenza virus; type: cell-based
parainfluenza virus [2] = test: Impact on virus-induced cytopathic effect in Vero cells (MTT): parainfluenza virus; type: cell-based; settings: parainfluenza virus 100TCID50, Vero, 72 h; drug g/L as Table 1-2
[3] = tested on: Coxsackievirus A16 (CoxA16); test: Impact on virus-induced cytopathic effect in Vero cells (MTT): CoxA16; type: cell-based; settings: CoxA16 100TCID50, Vero, 72 h; drug g/L as Table 1-2
adenovirus (ADV) = test: Impact on virus-induced cytopathic effect in Vero cells (MTT): ADV; type: cell-based; settings: ADV 100TCID50, Vero, 72 h; drug g/L as Table 1-2
influenza virus [4] = type: in vivo, Kunming mice; settings: 13.0 mg/kg/d i.g. 5 days
influenza virus [5] = type: in vivo, Kunming mice; settings: 13.0 mg/kg/d i.g. 5 days; remark: listed apart in the source
parainfluenza virus [6] = type: in vivo, Kunming mice; settings: 13.0 mg/kg/d i.g. 5 days
[7] = tested on: sweat secretion of rat paws; test: Sweat secretion of rat paws (coloring method); type: in vivo, Wistar rats; settings: dose not given
Excerpt: The test is based on a mechanism that distribution of sweat glands is present in footpads of rat paws, the amount of sweat secretion and variation thereof can be observed by using a mechanism that a purple color can be produced by contacting iodine and starch when encountered with sweat.
500 Wistar rats with equal male and female number were used, weighing of 120˜150 g. These rats were randomly divided into 50 groups by weight and gender, i.e., namely 5 groups for the control groups (0.5% methyl cellulose), 5 groups for phillyrin groups, 5 groups for phillygeninin groups, 5 groups for the low, medium and high dose groups (2.5, 5, 10 mg/kg, respectively) of phillyrin/phillygeninin compositions A and B respactively, and 5 groups for the positive drug pilocarpine groups (35 mg/kg). Each group has 10 rats, 10 groups of rates are used for each test, which has 5 time periods (1, 5, 10, 15 and 20 min). The rats were placed into a self-made rat fixation bag, and both hind limbs of the rats were exposed. Dirt on the right paws was gently cleaned away using cotton swabs containing anhydrous alcohol. Pilocarpine solution was administered by subcutaneous injection, the remaining groups were subjected to intragastric administration. At 1 h (30 min for the pilocarpine group) after administration, pre-existing sweat and sweat generated due to struggle on the right paw of each rat in each group was gently wiped away with dry cotton swabs, then the paws were coated with solution A (dissolving 2 g iodine in 100 ml anhydrous alcohol) of Hetian-gaoyuanshi's reagent. After complete dryness, the paws were thinly coated with solution B (uniform mixture of 50 g soluble starch and 100 ml castor oil) of Hetian-gaoyuanshi's reagent. The color and number of dark purple coloring spots (i.e. sweat spots) were carefully observed at 1, 5, 10, 15 and 20 min after the coating of the solution B respectively with magnifying glass. After the test was completed, statistical treatment was performed according to the rank sum test with two-sample comparison, thereby comparing the differences among the various groups.

[8] = tested on: sweat gland epithelial cells of rat paws; test: Sweat secretion of rat paws (histomorphological observation method); type: in vivo, Wistar rats; settings: dose not given; i.g., 1 h after administration
Excerpt: This test is based on a mechanism that when a rat is in an excited state, in addition to the increase of sweat secretion of sweat glands, the morphology of sweat gland epithelial cells changes accordingly. Under an optical microscope, it can be seen that the sweat gland epithelial cell vacuoles increase in number and expand. Under an electron microscope, such expanded vacuoles appear to be mitochondria in the sweat gland epithelial cell swelling, breakage and fusion and expansion of secretory vesicle. Therefore, through histomorphological observation of sweat gland epithelial tissue of a rat paw, secretory activities of the sweat gland can be known.
300 Wistar rats with equal male and female number, weighing 120˜160 g were used. These rats were randomly divided into 30 groups by weight and gender: control groups (0.5% of methyl cellulose), phillygeninin groups, phillyrin groups, low, medium and high dose groups (2.5, 5, 10 mg/kg) of phillyrin/phillygeninin compositions A and B separately, and positive drug pilocarpine groups (35 mg/kg). Each group has 10 rats, the test is repeated 3 times for each group. Pilocarpine solution was administered by subcutaneous injection, the remaining groups were subjected to intragastric administration. After administration of the 0.5% of methyl cellulose in the control group for one hour, after administration of the pilocarpine in the positive drug group for 30 min, and after administration of the phillyrin, the phillygeninin and the phillyrin/phillygeninin composition for one hour, the right hind limb was instantly cut off at the ankle joint to immediately take down the footpad of the right hind limb and placed into 10% of formaldehyde solution. The footpads were fixed, dehydrated, embedded, sliced and stained with HE by using conventional methods. Changes in sweat gland epithelial cells of the rat paws from each group were observed under an optical microscope, to mainly observe the percentage of vacuolization. The differences among the various groups was performed through X^2 test for statistical analysis. The above test was repeated 3 times. Percentage of vacuolization=(the number of vacuolized sweat glands)/(the number of sweat glands observed)×100%.

[9] = 10 min after coating solution B
[10] = 15 min after coating solution B
[11] = 20 min after coating solution B

SMILES	half toxic concentration (TC50) (Vero cells) [µg/mL]	maximal non-toxic concentration (TC0) (Vero cells) [g/L]	antiviral effective rate (ER %) (parainfluenza virus [2])	antiviral effective rate (ER %) [3]	antiviral effective rate (ER %) (adenovirus (ADV))	Lung index (influenza virus [4])	Lung index inhibition rate (influenza virus [4])	Hemagglutination titer (InX) (influenza virus [5])	Inhibition rate (%) of hemagglutination titer (influenza virus [5]) [%]	Hemagglutination titer (InX) (parainfluenza virus [6])	Inhibition rate (%) of hemagglutination titer (parainfluenza virus [6]) [%]	Animal number of sweat spots of level + ([7]; 1 min after coating solution B) [rats]	Animal number of sweat spots of level ++ ([7]; 1 min after coating solution B) [rats]	Animal number of sweat spots of level +++ ([7]; 1 min after coating solution B) [rats]	Animal number of sweat spots of level ++++ ([7]; 1 min after coating solution B) [rats]	Animal number of sweat spots of level − ([7]; 1 min after coating solution B) [rats]	Animal number of sweat spots of level + ([7]; 5 min after coating solution B) [rats]	Animal number of sweat spots of level ++ ([7]; 5 min after coating solution B) [rats]	Animal number of sweat spots of level +++ ([7]; 5 min after coating solution B) [rats]	Animal number of sweat spots of level ++++ ([7]; 5 min after coating solution B) [rats]	other results
COc1ccc([C@H]2OCC3C2CO[C@H]3c2ccc(O[C@@H]3OC(CO)[C@@H](O)[C@H](O)C3O)c(OC)c2)cc1OC (stereo partly drawn) [phillyrin]	550	0.0066	84.96** %	75.08** %	75.14** %	1.280 ± 0.040	14.00	22.06 ± 1.120	31.90	23.17	30.01	2	2	2	4	0	1	2	2	5	antiviral effective rate (ER %) (influenza virus [1]; influenza virus 100TCID50, Vero, 72 h, drug g/L (Table 1-2): phillyrin 0.01, Phillygeninin 0.02, compositions A, B 0.01, Ribavirin 0.70, oseltamivir phosphate 0.30): 75.38** %; Animal number of sweat spots of level − ([7]; 5 min after coating solution B): 0 rats; Animal number of sweat spots of level + [7, 9]: 1 rats; Animal number of sweat spots of level ++ [7, 9]: 1 rats; Animal number of sweat spots of level +++ [7, 9]: 3 rats; Animal number of sweat spots of level ++++ [7, 9]: 5 rats; Animal number of sweat spots of level − [7, 9]: 0 rats; Animal number of sweat spots of level + [7, 10]: 1 rats; Animal number of sweat spots of level ++ [7, 10]: 2 rats; Animal number of sweat spots of level +++ [7, 10]: 4 rats; Animal number of sweat spots of level ++++ [7, 10]: 5 rats; Animal number of sweat spots of level − [7, 10]: 0 rats; Animal number of sweat spots of level + [7, 11]: 0 rats; Animal number of sweat spots of level ++ [7, 11]: 4 rats; Animal number of sweat spots of level +++ [7, 11]: 0 rats; Animal number of sweat spots of level ++++ [7, 11]: 6 rats; Animal number of sweat spots of level − [7, 11]: 0 rats; Number of sweat glands of vacuole [8]: 86; percentage of vacuolization (%) [8]: 22.15** %
COc1cc([C@H]2OC[C@H]3[C@@H]2CO[C@H]3c2ccc(OC)c(OC)c2)ccc1O [Phillygeninin, phillygeninin]	297	0.011	80.72** %	50.04%	50.61%	1.302 ± 0.046	12.51	22.61 ± 1.059	30.22	23.79	28.15	1	3	3	3	0	1	3	2	4	antiviral effective rate (ER %) (influenza virus [1]): 75.35** %; Animal number of sweat spots of level − ([7]; 5 min after coating solution B): 0 rats; Animal number of sweat spots of level + [7, 9]: 1 rats; Animal number of sweat spots of level ++ [7, 9]: 3 rats; Animal number of sweat spots of level +++ [7, 9]: 1 rats; Animal number of sweat spots of level ++++ [7, 9]: 5 rats; Animal number of sweat spots of level − [7, 9]: 0 rats; Animal number of sweat spots of level + [7, 10]: 1 rats; Animal number of sweat spots of level ++ [7, 10]: 1 rats; Animal number of sweat spots of level +++ [7, 10]: 3 rats; Animal number of sweat spots of level ++++ [7, 10]: 5 rats; Animal number of sweat spots of level − [7, 10]: 0 rats; Animal number of sweat spots of level + [7, 11]: 0 rats; Animal number of sweat spots of level ++ [7, 11]: 1 rats; Animal number of sweat spots of level +++ [7, 11]: 4 rats; Animal number of sweat spots of level ++++ [7, 11]: 5 rats; Animal number of sweat spots of level − [7, 11]: 0 rats; Number of sweat glands of vacuole [8]: 79; percentage of vacuolization (%) [8]: 20.26** %
